Measured values reported in PubChem BioAssay (NCI).
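Cultured in 96-well plates, cells were exposed to test compound for 48 hours across five concentrations. GI50 marks 50% less growth. TGI denotes the concentration required for complete inhibition of growth.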

What was measured:
Assay in all cases: inhibition of tumour cell growth, NCI panel, 48 h
A549 NSCLC = test system: A549 NSCLC
SNB-19 CNS = test system: SNB-19 CNS
HCT-15 colon = test system: HCT-15 colon
MDA-MB-435 = test system: MDA-MB-435
MOLT-4 leukemia = test system: MOLT-4 leukemia
SK-MEL-5 melanoma = test system: SK-MEL-5 melanoma
IGROV1 ovarian = test system: IGROV1 ovarian
COLO 205 colon = test system: COLO 205 colon
UACC-62 melanoma = test system: UACC-62 melanoma

SMILES	TGI (A549 NSCLC)	TGI (SNB-19 CNS)	TGI (HCT-15 colon)	TGI (MDA-MB-435)	TGI (MOLT-4 leukemia)	TGI (SK-MEL-5 melanoma)	TGI (IGROV1 ovarian)	TGI (COLO 205 colon)	TGI (UACC-62 melanoma)	GI50 (COLO 205 colon)	GI50 (SNB-19 CNS)	GI50 (HCT-15 colon)	GI50 (MDA-MB-435)	GI50 (MOLT-4 leukemia)	GI50 (SK-MEL-5 melanoma)	GI50 (IGROV1 ovarian)	GI50 (UACC-62 melanoma)
CCOC(=O)C(NC(=O)CC(C)C)(Nc1ccc(C(F)(F)F)cc1)C(F)(F)F (stereo not drawn)	> 100 µM	> 100 µM	> 100 µM	> 100 µM	> 100 µM	> 100 µM	> 100 µM										
Cc1ccc(S(=O)(=O)NC(=O)NCCC(=O)O)cc1	> 100 µM	> 100 µM	> 100 µM		> 100 µM	> 100 µM	> 100 µM	> 100 µM	> 100 µM								
O=C1CCCC2=C1C(c1ccc3c(c1)OCO3)Nc1ccc3ccccc3c12 (stereo not drawn)	> 100 µM	> 100 µM	> 100 µM	> 100 µM		> 100 µM	> 100 µM	> 100 µM	> 100 µM								
O=c1[nH]c(=O)n(COCc2ccccc2)c2ccc([N+](=O)[O-])cc12	> 100 µM		> 100 µM	> 100 µM	> 100 µM	> 100 µM	> 100 µM	> 100 µM	> 100 µM								
Cc1cn(CC2=NCCCN2)c(=O)[nH]c1=O	> 100 µM	> 100 µM	> 100 µM		> 100 µM	> 100 µM	> 100 µM	> 100 µM	> 100 µM								
O=C(CN1CCCCC1)c1ccc2c(c1)Sc1ccccc1O2	29.1 µM	28.9 µM	24.6 µM	33.9 µM	> 100 µM		23.5 µM	61.1 µM	25.7 µM								
CC(=NCCN(CCN=C(C)c1c(O)cc(C)oc1=O)CCN=C(C)c1c(O)cc(C)oc1=O)c1c(O)cc(C)oc1=O	> 100 µM	> 100 µM	> 100 µM	> 100 µM	> 100 µM	> 100 µM	> 100 µM	> 100 µM									
C[C@H](CC[C@@H](O)C(C)(C)O)[C@H]1CC[C@@]2(C)[C@@H]3CC=C4[C@@H](CC[C@H](O)C4(C)C)[C@]3(C)C(=O)C[C@]12C	> 50 µM	> 50 µM	> 50 µM	> 50 µM	> 50 µM	> 50 µM	> 50 µM	31.8 µM									
Fc1ccc(C2CC(c3cccc(Nc4ccncc4)c3)=NN2c2cc(Cl)cc(Cl)c2)cc1 (stereo not drawn)		3.32 µM	3.47 µM	3.13 µM	5.23 µM	3.34 µM	3.3 µM	4.81 µM	3.27 µM	2.21 µM	1.74 µM	1.77 µM	1.68 µM	2.23 µM	1.81 µM	1.74 µM	1.74 µM
N#CC(C#N)=Cc1c(O)ccc2ccccc12	38 µM	30.5 µM	37.5 µM	30 µM		26.2 µM	39.4 µM	44.5 µM	31.1 µM								
O=C(NC1(C(=O)NNc2nnc(-c3ccccc3)c(-c3ccccc3)n2)C(c2ccccc2)C(c2ccccc2)=NN1c1ccccc1)c1ccccc1 (stereo not drawn)	> 100 µM	> 100 µM	> 100 µM	> 100 µM	> 100 µM	> 100 µM		> 100 µM	> 100 µM								
COc1ccc(Oc2nc3ccc(C(F)(F)F)cc3nc2-c2ccccc2)cc1		> 100 µM	> 100 µM	> 100 µM	> 100 µM	> 100 µM	> 100 µM	> 100 µM	> 100 µM								
